We go through 67 molecules from patent publication US20240376109A1, “PYRAZOLO[1,5-A]PYRIMIDINE COMPOUND FOR THE TREATMENT OF DERMAL DISORDERS” (OTSUKA PHARMACEUTICAL CO., LTD., priority 2021, published 2024).

The target in one experiment is T1, PAR2 (Homo sapiens, UniProt P55085).
T1 construct: HEK293 cell lines derived from human embryonic kidney cultured in a MEM culture medium; endogenous in cells; host or cells: HEK293
T1 sequence (P55085 26-397): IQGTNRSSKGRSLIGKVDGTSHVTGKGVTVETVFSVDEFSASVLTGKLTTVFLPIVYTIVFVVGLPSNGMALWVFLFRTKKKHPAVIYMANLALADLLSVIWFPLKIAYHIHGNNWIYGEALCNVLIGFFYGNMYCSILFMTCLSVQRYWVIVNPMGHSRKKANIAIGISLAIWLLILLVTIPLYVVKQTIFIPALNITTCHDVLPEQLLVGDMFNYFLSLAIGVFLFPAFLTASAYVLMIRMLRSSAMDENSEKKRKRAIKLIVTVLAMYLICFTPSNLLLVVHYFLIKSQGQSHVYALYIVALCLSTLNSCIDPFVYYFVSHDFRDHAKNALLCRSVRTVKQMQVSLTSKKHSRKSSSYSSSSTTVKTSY
Kind of experiment: Intracellular calcium concentration measurement (SLIGKV-NH2-induced calcium change, Fluo-8, FDSS/μCELL). Format: cell-based. As to conditions: HEK293 cells; SLIGKV-NH2 10 μM-induced intracellular calcium change; read-out: IC50.
Consider `Cc1cc(CC2CCCCC2)nc2cc(C(=O)N3CCCCC3(C)C)nn12` [Example 99], for which the IC50 (in general, the concentration that inhibits the measured activity by half) was 336 nM.
Turning to `O=C(c1cc2nc(C3CCC(F)(F)CC3)cc(C(F)(F)F)n2n1)N1CCCCCC1` [Example 56], the IC50 was found to be 283 nM.
For `CCC(CC)c1cc(CC2CCCC2)nc2cc(C(=O)N3CCCCCC3)nn12` [Example 33], the IC50 was 51 nM.
Take `CC(C)c1cc(C2C3CCCCC32)nc2cc(C(=O)N3CCCCCC3)nn12` (stereo not shown) [Example 159]: the IC50 came to 394 nM.
Consider `CC(C)c1cc(CC2CCCCCC2)nc2cc(C(=O)N3CCCCCC3)nn12` [Example 46], for which the IC50 is 99 nM.
For the molecule `CC(C)c1cc(CC2CCCCC2)nc2cc(C(=O)N3CCCC(F)(F)CC3)nn12` [Example 142], the IC50 is 171 nM.
In the case of `CC(C)(C)c1cc(CC2CCCCC2)nc2cc(C(=O)N3CCCCC3(C)C)nn12` [Example 161], the IC50 was 296 nM.
Same read-out and setting: as for `CCC1CCC(Cc2cc(C(C)C)n3nc(C(=O)N4CCCCCC4)cc3n2)CC1` (stereo not shown) [Example 139], the figure is 95 nM.
Take `CC(C)c1cc(COC2CCCC2)nc2cc(C(=O)N3CCCCC3(C)C)nn12` [Example 86]: the IC50 was determined as 338 nM.
In the case of `COCCN1CCN(C(=O)c2cc3nc(CC4CCCCC4)cc(C(C)C)n3n2)C(C)(C)C1` [Example 116, [5-(cyclohexylmethyl)-7-propan-2-ylpyrazolo[1,5-a]pyrimidin-2-yl]-[4-(2-methoxyethyl)-2,2-dimethylpiperazin-1-yl]methanone], the IC50 was 233 nM.
As to `CC(C)c1cc(CC2CCCC2)nc2cc(C(=O)N3CCCCCCC3)nn12` [Example 51], the half-maximal inhibitory concentration (IC50) is 209 nM.
For the molecule `CCC(CC)c1cc(CC2CCCCCC2)nc2cc(C(=O)N3CCCCC3(C)C)nn12` [Example 130], the IC50 came to 297 nM.
Take `O=C(c1cc2nc(C3C4CC5CC(C4)CC3C5)cc(C(F)(F)F)n2n1)N1CCCCCC1` (stereo not shown) [Example 84]: the IC50 came to 274 nM.
Same read-out and setting: as for `CC(C)c1cc(CC2CC3(CCC3)C2)nc2cc(C(=O)N3CCCCCC3)nn12` [Example 160], the figure is 147 nM; as for `O=C(c1cc2nc(CC3CCCCC3)cc(C(F)(F)F)n2n1)N1CCCCCCC1` [Example 25], 49 nM; as for `CCCc1cc(CC2CCCCC2)nc2cc(C(=O)N3CCCCCC3)nn12` [Example 9, azepan-1-yl(5-(cyclohexylmethyl)-7-propylpyrazolo[1,5-a]pyrimidin-2-yl)methanone], 74 nM.
Take `O=C(c1cc2nc(CC3CCCCC3)cc(C3CCCC3)n2n1)N1CCCCCC1` [Example 29]: the IC50 was found to be 467 nM.
As for `CC(C)c1cc(CC2CCCCC2)nc2cc(C(=O)N3CCSCC3)nn12` [Example 125], the IC50 is 256 nM.
For the molecule `CCC(C)c1cc(CC2CCCC2)nc2cc(C(=O)N3CCCCC3(C)C)nn12` (stereo not shown) [Example 75], the IC50 amounted to 89 nM.
`CC(C)c1cc(CC2CCCCC2)nc2cc(C(=O)N3CCCCCCC3)nn12` [Example 52]: the IC50 was 107 nM.
As to `CC1(C)C(O)CCCN1C(=O)c1cc2nc(C3CCCCC3)cc(C(F)(F)F)n2n1` (stereo not shown) [Example 111], the IC50 was 250 nM.
Take `COC1CCN(C(=O)c2cc3nc(CC4CCCC4)cc(C(C)C)n3n2)C(C)(C)C1` (stereo not shown) [Example 114]: the IC50 was determined as 234 nM.
Same read-out and setting: next, `CC1(c2cc(C(F)(F)F)n3nc(C(=O)N4CCCCCC4)cc3n2)CCCCC1` [Example 57]: 308 nM.
With `CC1CCC(Cc2cc(C(C)C)n3nc(C(=O)N4CCCCC4)cc3n2)CC1` (stereo not shown) [Example 132], the IC50 came to 197 nM.
Regarding `CC(C)c1cc(CC2CCC(C)(C)CC2)nc2cc(C(=O)N3CCCCCC3)nn12` [Example 152], the IC50 was 132 nM.
The same measure, in the same setting: next, `CC1(C)C(=O)CCCN1C(=O)c1cc2nc(C34CC5CC(CC(C5)C3)C4)cc(C(F)(F)F)n2n1` [Example 96]: 10 nM.
On the same count and under the same terms, as for `CC(C)c1cc(CC2CCCCC2)nc2cc(C(=O)N3CCCCC3(C)C)nn12` [Example 39], the figure is 64 nM; as for `CC(C)c1cc(C23CC4CC(CC(C4)C2)C3)nc2cc(C(=O)N3CCCC(O)C3(C)C)nn12` (stereo not shown) [Example 97], 20 nM.
Take `CC(C)c1cc(CC2CCCCC2)nc2cc(C(=O)N3CCSCC3(C)C)nn12` [Example 50]: the IC50 is 43 nM.
With `CCCN(CC)c1cc(CC2CCCCC2)nc2cc(C(=O)N3CCCCCC3)nn12` [Example 131], the IC50 was determined as 225 nM.
Regarding `CCC(CC)c1cc(CC2CCCC2)nc2cc(C(=O)N3CCCC(O)C3(C)C)nn12` (stereo not shown) [Example 104], the IC50 was 46 nM.
As for `CCC(C)c1cc(CC2CCCCC2)nc2cc(C(=O)N3CCSCC3)nn12` (stereo not shown) [Example 128], the IC50 was 151 nM.
Regarding `CC1(C)CCCCN1C(=O)c1cc2nc(C34CC5CC(CC(C5)C3)C4)cc(C(F)(F)F)n2n1` [Example 24], the IC50 was found to be 9 nM.
With `CCC(CC)c1cc(CC2CCCC2)nc2cc(C(=O)N3CCC(O)CC3(C)C)nn12` (stereo not shown) [Example 106], the IC50 is 96 nM.
For the molecule `CC1(C)COCCN1C(=O)c1cc2nc(C34CC5CC(CC(C5)C3)C4)cc(C(F)(F)F)n2n1` [Example 62], the IC50 was 52 nM.
On the same count and under the same terms, next, `CCC(CC)c1cc(CC2CCCCC2)nc2cc(C(=O)N3CCC(O)CC3(C)C)nn12` (stereo not shown) [Example 73]: 33 nM.
On the same count and under the same terms, as for `CC(C)c1cc(C(C)C2CCCCC2)nc2cc(C(=O)N3CCCCCC3)nn12` (stereo not shown) [Example 93], the figure is 236 nM; as for `CC1(C)C(O)CCCN1C(=O)c1cc2nc(C34CC5CC(CC(C5)C3)C4)cc(C(F)(F)F)n2n1` (stereo not shown) [Example 100], 23 nM; as for `O=C(c1cc2nc(CC3CCCCC3)cc(C(F)(F)F)n2n1)N1CCCCCCCC1` [Example 27], 138 nM.
Consider `C=C1CCCN(C(=O)c2cc3nc(CC4CCCC4)cc(C(C)C)n3n2)C1(C)C` [Example 129], for which the IC50 was 208 nM.
Consider `COC1CCN(C(=O)c2cc3nc(C45CC6CC(CC(C6)C4)C5)cc(C(F)(F)F)n3n2)C(C)(C)C1` (stereo not shown) [Example 63], for which the IC50 was determined as 12 nM.
As for `CC(C)(C)c1cc(CC2CCCCC2)nc2cc(C(=O)N3CCCCCC3)nn12` [Example 28, azepan-1-yl-[7-tert-butyl-5-(cyclohexylmethyl)pyrazolo[1,5-a]pyrimidin-2-yl]methanone], the IC50 came to 60 nM.
`CCc1cc(CC2CCCCCC2)nc2cc(C(=O)N3CCCCCCC3)nn12` [Example 147]: the IC50 is 163 nM.
With `CC(C)c1cc(CC2CCCCC2)nc2cc(C(=O)N3CCCCCO3)nn12` [Example 91], the IC50 was 522 nM.
In the case of `CC1(C)CCCCCN1C(=O)c1cc2nc(C34CC5CC(CC(C5)C3)C4)cc(C(F)(F)F)n2n1` [Example 61], the IC50 was determined as 96 nM.
`CCC(CC)c1cc(CC2CCCCC2)nc2cc(C(=O)N3CCCCCC3)nn12` [Example 48]: the IC50 amounted to 105 nM.
`CC1CCCN(C(=O)c2cc3nc(CC4CCCC4)cc(C(C)C)n3n2)CC1` (stereo not shown) [Example 127]: the IC50 was 229 nM.
With `CC(C)c1cc(CC2CCC(C(F)(F)F)CC2)nc2cc(C(=O)N3CCCCCC3)nn12` (stereo not shown) [Example 156], the IC50 is 103 nM.
Consider `COC1(C)CCCN(C(=O)c2cc3nc(CC4CCCCC4)cc(C(C)C)n3n2)C1(C)C` (stereo not shown) [Example 122], for which the IC50 stood at 178 nM.
As for `CCCCCCc1cc(CC2CCCCC2)nc2cc(C(=O)N3CCCCCC3)nn12` [Example 69], the IC50 is 286 nM.
The same measure, in the same setting: next, `CCCN(C)c1cc(CC2CCCCC2)nc2cc(C(=O)N3CCCCCC3)nn12` [Example 135]: 386 nM.
Consider `CCC(C)c1cc(CC2CCCCCC2)nc2cc(C(=O)N3CCCCCC3)nn12` (stereo not shown) [Example 149], for which the IC50 stood at 208 nM.
The same measure, in the same setting: as for `CC(C)c1cc(CC2CCCCC2)nc2cc(C(=O)N3CCOCC3(C)C)nn12` [Example 76], the figure is 121 nM.
Same read-out and setting: as for `CC1(C)CCCCN1C(=O)c1cc2nc(C3CCCC3)cc(C(F)(F)F)n2n1` [Example 162], the figure is 304 nM; as for `CCC(C)c1cc(CC2CCCCC2)nc2cc(C(=O)N3CCCCCCC3)nn12` (stereo not shown) [Example 143], 91 nM; as for `CCC(C)c1cc(CC2CCCC2)nc2cc(C(=O)N3CCCCCCC3)nn12` (stereo not shown) [Example 78], 247 nM.
In the case of `CC1(C)CCCCN1C(=O)c1cc2nc(CC3CCCCC3)cc(C(F)(F)F)n2n1` [Example 31], the IC50 was found to be 81 nM.
Turning to `CC(C)c1cc(CCC2CCCCC2)nc2cc(C(=O)N3CCSCC3(C)C)nn12` [Example 74], the IC50 worked out at 386 nM.
As to `CCc1cc(C2CCCCC2)nc2cc(C(=O)N3CCCCC3(C)C)nn12` [Example 121], the IC50 was 245 nM.
Regarding `CCC(C)c1cc(CC2CCCCC2)nc2cc(C(=O)N3CCCCCC3)nn12` (stereo not shown) [Example 47], the IC50 is 146 nM.
As for `CC1CCC(Cc2cc(C(C)C)n3nc(C(=O)N4CCCCC4(C)C)cc3n2)CC1` (stereo not shown) [Example 109], the IC50 is 85 nM.
As for `CC1(C)CCCCN1C(=O)c1cc2nc(CC3CCCC3)cc(C(F)(F)F)n2n1` [Example 30], the concentration for half-maximal inhibition (IC50) worked out at 102 nM.
As to `CCc1cc(CC2CCCCC2)nc2cc(C(=O)N3CCCCC3(C)C)nn12` [Example 35], the IC50 came out at 130 nM.
For the molecule `CC(C)c1cc(CC2CCC(F)CC2)nc2cc(C(=O)N3CCCCCC3)nn12` (stereo not shown) [Example 153], the IC50 was determined as 282 nM.
As for `CCc1cc(CC2CCCCCC2)nc2cc(C(=O)N3CCCCCC3)nn12` [Example 148], the IC50 came to 144 nM.

Still in this experiment, the particulars now being: IC50 (nM).
With `CCCN(CCC)c1cc(CC2CCCCC2)nc2cc(C(=O)N3CCCCCC3)nn12` [Example 89, azepan-1-yl-[5-(cyclohexylmethyl)-7-(dipropylamino)pyrazolo[1,5-a]pyrimidin-2-yl]methanone], the IC50 worked out at 243 nM.
Still for that read-out and setting: next, `O=C(c1cc2nc(NC34CC5CC(CC(C5)C3)C4)cc(C(F)(F)F)n2n1)N1CCCCCC1` [Example 82]: 76 nM.
